Data: patent publication US11998640B2, “Room temperature stable oral calcitonin formulation” (PARK THERAPEUTICS, INC., priority 2016, dated 2024)

Columns and labels:
[1] = Binary mixture study: stability of rsCT with individual excipients stored at 40° C. (recovery and purity); type: physicochemical; conditions: for rsCT stability in binary mixture: 40° C.
Procedure: Binary mixtures were prepared by combining about 18 mg of rsCT with about 300 mg of each of the excipients, individually. Each binary mixture was evaluated in the presence or absence of 10% (w/w) water. Control samples included rsCT only. The mixtures were stored at 40° C., were pulled in duplicate after 7 days and 32 days, and were evaluated for recovery (assay activity relative to that of untreated and dried rsCT) and purity.

[2] = more potent than human calcitonin; cited from earlier work
[3] = Water content of rsCT and excipient powders by Karl Fischer Coulometric Titration Method 1c; type: physicochemical; conditions: for Dried Water content: powder after drying in a lyophilizer; for Untreated Water Content: powder in its untreated state
Procedure: The stability of rsCT in the binary presence of the tablet core and subcoat excipients, as well as the effect of intrinsic and extrinsic moisture on the stability of those mixtures, was thoroughly examined. Each of the components including rsCT was evaluated in its untreated state and after drying in a lyophilizer (dried). The water content of each powder was determined by Karl Fischer Coulometric Titration Method 1c prior to preparation of the binary mixtures and is presented in Table 1, below.

Row | Average Purity (Area %) ([1]; 10% (v/w) Water Added, T = 7 days at 40° C.) [% Area %] | Average Purity (Area %) ([1]; 10% (v/w) Water Added, T = 32 days at 40° C.) [% Area %] | Average Purity (Area %) ([1]; Untreated Powders, T = 7 days at 40° C.) [% Area %] | Average Purity (Area %) ([1]; Untreated Powders, T = 32 days at 40° C.) [% Area %] | rsCT stability in binary mixture ([1]; in the presence of water and Kollicoat IR) | Compound | rsCT stability in binary mixture ([1]; in the presence of water and Citric Acid DC F20) | rsCT stability in binary mixture ([1]; in the presence of water and Prosolv HD90) | Potency relative to human calcitonin [2] | Dried Water content [3] [%] | Untreated Water Content [3] [%]
1 | 98.2 | 95.1 | 98.9 | 96.0 | loss of rsCT activity and loss in purity | CC(C)C[C@H](NC(=O)[C@H](CCCCN)NC(=O)CNC(=O)[C@H](CC(C)C)NC(=O)[C@@H](NC(=O)[C@@H]1CSSC[C@H](N)C(=O)N[C@@H](CO)C(=O)N[C@@H](CC(N)=O)C(=O)N[C@@H](CC(C)C)C(=O)N[C@@H](CO)C(=O)N[C@@H]([C@@H](C)O)C(=O)N1)C(C)C)C(=O)N[C@@H](CO)C(=O)N[C@@H](CCC(N)=O)C(=O)N[C@@H](CCC(=O)O)C(=O)N[C@@H](CC(C)C)C(=O)N[C@@H](Cc1c[nH]cn1)C(=O)N[C@@H](CCCCN)C(=O)N[C@@H](CC(C)C)C(=O)N[C@@H](CCC(N)=O)C(=O)N[C@H](C(=O)N[C@@H](Cc1ccc(O)cc1)C(=O)N1CCC[C@H]1C(=O)N[C@@H](CCCNC(=N)N)C(=O)N[C@H](C(=O)N[C@@H](CC(N)=O)C(=O)N[C@H](C(=O)NCC(=O)N[C@@H](CO)C(=O)NCC(=O)N[C@H](C(=O)N1CCC[C@H]1C(N)=O)[C@@H](C)O)[C@@H](C)O)[C@@H](C)O)[C@@H](C)O [rsCT, salmon calcitonin] | rapidly degraded with concomitant loss of recovery and purity | rapid loss of rsCT activity and non-concomitant loss in purity | 30-50 times | 0.90 | 8.91
2 |  |  |  |  |  | Magnesium Stearate |  |  |  | 3.51 | 5.00
